Experimental data taken from PMC8329300, “X-ray crystallography reveals molecular recognition mechanism for sugar binding in a melibiose transporter MelB” (Communications Biology, 2021).

Legend:
[1] = target: T1, MelBSt WT (Salmonella typhimurium, UniProt P30878); test: [3H]Melibiose transport time course with DW2 intact cells expressing MelBSt WT; type: cell-based; details: 0.4 mM [3H]melibiose
T1 construct: Cys scanning mutagenesis for the full-length MelBSt; expressed in transfected cells; host or cells: E. coli DW2 (melA+, melB-, lacZ-Y-)
T1 sequence (P30878 whole entry): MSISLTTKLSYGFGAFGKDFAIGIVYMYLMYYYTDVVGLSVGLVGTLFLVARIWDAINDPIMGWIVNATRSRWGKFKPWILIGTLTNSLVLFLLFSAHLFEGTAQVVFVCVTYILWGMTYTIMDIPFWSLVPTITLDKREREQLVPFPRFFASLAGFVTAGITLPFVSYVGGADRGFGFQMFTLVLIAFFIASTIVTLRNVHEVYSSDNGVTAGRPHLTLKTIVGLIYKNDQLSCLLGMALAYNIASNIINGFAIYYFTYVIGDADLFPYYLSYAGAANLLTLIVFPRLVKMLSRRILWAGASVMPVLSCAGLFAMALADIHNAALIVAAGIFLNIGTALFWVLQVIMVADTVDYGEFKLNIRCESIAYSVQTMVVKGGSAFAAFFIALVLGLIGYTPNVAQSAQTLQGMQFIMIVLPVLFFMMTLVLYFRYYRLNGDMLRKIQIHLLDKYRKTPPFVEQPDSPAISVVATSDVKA
Protocol: (§1) Fig. 1 Functional characterizations. a [^3H] Melibiose transport time course with intact cells. E. coli DW2 strain (melB^−, lacZ^−Y^−) expressed with the WT, D59C, or D59A MelBSt mutants were subjected to [^3H]melibiose active transport assay at 0.4 mM and 10 mCi/mmol in the presence of 20 mM or 100 mM NaCl or LiCl by a fast filtration method. Inset, melibiose fermentation assay. Transformants with DW2 strain were plated on MacConkey agar plates containing 30 mM melibiose as the sole carbohydrate source and pH sensor neutral red, and incubated at 37 °C for 16–18 h before imaging. Number of tests = 3, from different batch of cells or duplicate measurements from same batch of sample. b Ligand binding by Trp→dansyl galactoside (D^2G) FRET assay. Purified proteins at 1 μM concentration in 20 mM Tris-HCl, pH 7.5, 100 mM CholCl, 10% glycerol, and 0.03% UDM were subjected to steady-state fluorescence measurements as described in Methods. On the time-trace, 1.8 μL of 1 mM D^2G at 10 μM was added into 180 μL of protein solutions at 1-min point, followed by supplying 10 μL of 5 mM DDMB or 5 mM α-NPG to displace the bound D^2G. For testing Na^+ or Li^+ binding, they are added into the solution before displacement with the second sugar. The structure of DDMB or α-NPG is shown in a chair form, and the carbon positions are labeled. Glycosidic bonds are indicated by arrows. Both are α-galactosides containing a substituent at the anomeric carbon-1. The data were from duplicate measurements.
(§2) The overexpression of MelBSt was carried out in the E. coli DW2 strain (melA^+, melB^−, and lacZ^−Y^−) from a constitutive expression plasmid pK95ΔAH/MelBSt/CHis10[9],[28],[33]. The D59C or D59A mutant with Cys or Ala at the position 59, respectively, was constructed previously[9] or in this study by QuikChange Site-Directed Mutagenesis kit and confirmed by DNA sequencing analysis. E. coli DW2 cells containing a given plasmid were grown in Luria-Bertani (LB) broth (5 g yeast extract and 10 g tryptone per liter with 171 mM NaCl) with 100 mg/L of ampicillin in a 37 °C shaker. The overnight cultures were diluted by 5% with LB broth supplemented with 0.5% glycerol and 100 mg/L of ampicillin, and constitutive overexpression was obtained by shaking at 30 °C for another 5 h.
(§3) E. coli DW2 cells expressing MelBSt were washed with 100 mM KPi, pH 7.5, to remove Na^+ contamination as described previously. The cell pellets were resuspended with the assay buffer (100 mM KPi, pH 7.5, 10 mM MgSO4) and adjusted to A420 of 10 (∼0.7 mg protein/ml). Using a fast filtration, transport time course at 0.4 mM melibiose (at specific activity of 10 mCi/mmol) was carried out in the absence or presence of NaCl or LiCl at 20 mM or 100 mM, respectively, and intracellular melibiose was determined as described previously.

[2] = target: T2, MelBSt D59A (Salmonella typhimurium, UniProt P30878, D59A); test: [3H]Melibiose transport time course with DW2 intact cells expressing MelBSt D59A; type: cell-based; details: 0.4 mM [3H]melibiose
T2 construct: Cys scanning mutagenesis for the full-length MelBSt; expressed in transfected cells; host or cells: E. coli DW2 (melA+, melB-, lacZ-Y-)
T2 sequence (P30878 whole entry D59A): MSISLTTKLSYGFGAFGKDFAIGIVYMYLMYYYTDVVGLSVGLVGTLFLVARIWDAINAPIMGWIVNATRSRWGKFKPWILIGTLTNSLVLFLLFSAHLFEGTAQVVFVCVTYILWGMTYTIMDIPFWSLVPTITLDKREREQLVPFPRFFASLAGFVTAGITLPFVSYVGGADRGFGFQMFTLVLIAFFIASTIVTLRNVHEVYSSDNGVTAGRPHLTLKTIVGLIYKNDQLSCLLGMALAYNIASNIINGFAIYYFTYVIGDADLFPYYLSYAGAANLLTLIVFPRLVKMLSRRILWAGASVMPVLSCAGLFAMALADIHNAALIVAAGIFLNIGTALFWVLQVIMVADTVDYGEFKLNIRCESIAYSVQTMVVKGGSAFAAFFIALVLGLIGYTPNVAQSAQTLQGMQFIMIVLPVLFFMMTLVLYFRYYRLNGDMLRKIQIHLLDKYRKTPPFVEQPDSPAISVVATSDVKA
Protocol: as §1, §2, §3

OC[C@H]1O[C@H](OCC2O[C@@H](O)[C@H](O)[C@@H](O)[C@@H]2O)[C@H](O)[C@@H](O)[C@H]1O (stereo partly drawn) [Melibiose]
Melibiose transport ([1]; H+, Time 0.08333): 4.65
Melibiose transport ([1]; H+, Time 0.16667): 11.5871
Melibiose transport ([1]; H+, Time 0.5): 17.8175
Melibiose transport ([1]; H+, Time 1): 26.1053
Melibiose transport ([1]; H+, Time 2): 32.522
Melibiose transport ([1]; H+, Time 5): 41.2117
Melibiose transport ([1]; H+, Time 10): 51.4376
Melibiose transport ([1]; H+, Time 30): 52.9751
Melibiose transport ([1]; Li+, 20 mM, Time 0.08333): 5.082
Melibiose transport ([1]; Li+, 20 mM, Time 0.16667): 9.37
Melibiose transport ([1]; Li+, 20 mM, Time 0.5): 20.2553
Melibiose transport ([1]; Li+, 20 mM, Time 1): 29.5856
Melibiose transport ([1]; Li+, 20 mM, Time 2): 49.8958
Melibiose transport ([1]; Li+, 20 mM, Time 5): 106.047
Melibiose transport ([1]; Li+, 20 mM, Time 10): 190.811
Melibiose transport ([1]; Li+, 20 mM, Time 30): 313.001
Melibiose transport ([1]; Li+, 100 mM, Time 0.08333): 13.3342
Melibiose transport ([1]; Li+, 100 mM, Time 0.16667): 15.8108
Melibiose transport ([1]; Li+, 100 mM, Time 0.5): 32.509
Melibiose transport ([1]; Li+, 100 mM, Time 1): 62.5704
Melibiose transport ([1]; Li+, 100 mM, Time 2): 85.8864
Melibiose transport ([1]; Li+, 100 mM, Time 5): 142.587
Melibiose transport ([1]; Li+, 100 mM, Time 10): 325.223
Melibiose transport ([1]; Li+, 100 mM, Time 30): 437.5
Melibiose transport ([1]; Na+, 20 mM, Time 0.08333): 6.156
Melibiose transport ([1]; Na+, 20 mM, Time 0.16667): 13.1731
Melibiose transport ([1]; Na+, 20 mM, Time 0.5): 23.5532
Melibiose transport ([1]; Na+, 20 mM, Time 1): 28.6147
Melibiose transport ([1]; Na+, 20 mM, Time 2): 46.7036
Melibiose transport ([1]; Na+, 20 mM, Time 5): 103.453
Melibiose transport ([1]; Na+, 20 mM, Time 10): 203.925
Melibiose transport ([1]; Na+, 20 mM, Time 30): 320.843
Melibiose transport ([1]; Na+, 100 mM, Time 0.08333): 7.0516
Melibiose transport ([1]; Na+, 100 mM, Time 0.16667): 7.9788
Melibiose transport ([1]; Na+, 100 mM, Time 0.5): 20.0324
Melibiose transport ([1]; Na+, 100 mM, Time 1): 44.6398
Melibiose transport ([1]; Na+, 100 mM, Time 2): 78.2935
Melibiose transport ([1]; Na+, 100 mM, Time 5): 118.81
Melibiose transport ([1]; Na+, 100 mM, Time 10): 202.959
Melibiose transport ([1]; Na+, 100 mM, Time 30): 340.508
Melibiose transport ([2]; H+, Time 0.17): 9.09
Melibiose transport ([2]; H+, Time 0.50): 8.49
Melibiose transport ([2]; H+, Time 1.00): 2.84
Melibiose transport ([2]; H+, Time 2.00): 1.86
Melibiose transport ([2]; H+, Time 5.00): 1.70
Melibiose transport ([2]; H+, Time 10.00): 1.53
Melibiose transport ([2]; H+, Time 30.00): 1.58
Melibiose transport ([2]; Li+, 20 mM, Time 0.17): 0.82
Melibiose transport ([2]; Li+, 20 mM, Time 0.50): 1.81
Melibiose transport ([2]; Li+, 20 mM, Time 1.00): 0.66
Melibiose transport ([2]; Li+, 20 mM, Time 2.00): 4.29
Melibiose transport ([2]; Li+, 20 mM, Time 5.00): 3.59
Melibiose transport ([2]; Li+, 20 mM, Time 10.00): 1.72
Melibiose transport ([2]; Li+, 20 mM, Time 30.00): 4.17
Melibiose transport ([2]; Na+, 20 mM, Time 0.17): 4.09
Melibiose transport ([2]; Na+, 20 mM, Time 0.50): 2.70
Melibiose transport ([2]; Na+, 20 mM, Time 1.00): 2.54
Melibiose transport ([2]; Na+, 20 mM, Time 2.00): 5.43
Melibiose transport ([2]; Na+, 20 mM, Time 5.00): 1.63
Melibiose transport ([2]; Na+, 20 mM, Time 10.00): 1.16
